Results taken from US20040067241A1, “Comtrol a/k/a Virex antiviral composition” (priority 2002, published 2004).

Details: 75 mg/kg/day i.n.

## NC(=O)c1ncn([C@@H]2O[C@H](CO)[C@@H](O)[C@H]2O)n1 [Ribavirin]
Bid x 5, uninfected mice
  Tox Controls Surv/Total: 3/3
Initial weight vs weight 18 h after final treatment
  Tox Controls Mean Host Weight Change: -1.7 g
